Peptide text beside a SMILES is read from it. * marks the point of attachment. Cbz = O=C(OCc1ccccc1)*; CH2F = FC*
Experiments:
[1] = system: cell-free eukaryotic translation system on the basis of a cell extract from Spodoptera frugiperda (Sf21) insect cells; test: Cell-free synthesis of SII-eYFP, fluorescence intensity (phosphorimager), Example 1; format: biochemical; details: dialysis system after 48 h, −V, +CI versus −CI, densitometric evaluation
Method: The expression of the model protein was analyzed in the batch system and the dialysis system (50 μl reaction chamber; 1000 μl feeding chamber; cut-off of the membrane=10 kDa) over a period of 48 h. The translation mixtures were each incubated in the batch system and the dialysis system with (+) and without (−) insect cell vesicles (V) and with (+) and without (−) caspase inhibitor (CI) (at 27° C. and 600 rpm). The protein synthesis was carried out in the presence of the radioactively labeled amino acid ^14C-leucine in order to be able to determine the quantity of de novo synthesized target protein by means of hot TCA precipitation and scintillation measurement. The translation reactions were interrupted at particular time points (0 h, 2 h, 4 h, 24 h and 48 h) and analyzed as follows: 5 μl of the mixture was precipitated in hot TCA or ice-cold acetone in each case. A further 5 μl was resuspended in 25 μl PBS. The remaining sample volume was separated by means of a centrifuging step into the supernatant fluid (SN) and the vesicular fraction (VF). […] The samples resuspended in PBS were examined in the phosphorimager system (Typhoon TRIO+ imager, GE Healthcare) for their fluorescence intensity. For this purpose, 25 μl samples were pipetted into each cavity of the Ibidi slides and measured, the excitation of the samples taking place at 488 nm and the emission being measured at 526 nm.

[2] = system: cell-free eukaryotic translation system on the basis of a cell extract from Spodoptera frugiperda (Sf21) insect cells; test: Cell-free expression of membrane proteins (ETB, Hb-EGF, bacteriorhodopsin), protein yield by scintillation measurement; format: biochemical
Source text: Here, the influence of the caspase inhibitor on the expression of different membrane proteins in the eukaryotic translation system was investigated more closely. For this purpose, three different model proteins were selected: the endothelin-B receptor (ETB) is a G-protein coupled receptor with seven transmembrane domains which was used cloned into the vector pIX3.0 (Qiagen) for the expression. Furthermore, the type I transmembrane protein heparin-binding EGF-like growth factor (Hb-EGF), N-terminally fused to the melittin signal sequence and C-terminally fused to eYFP, present in the vector pIX3.0, was used for the expression. In addition, the expression of the membrane protein bacteriorhodopsin which also has seven transmembrane domains and was present in the vector pMA (GeneArt) was investigated. The three proteins were each expressed in the batch and dialysis systems without (−) and with (+) the addition of the caspase inhibitor (CI) in the presence of ^14C-leucine for 48 h (27° C.; 600 rpm, Eppendorf Thermomixer Comfort) and analyzed as in example 1. […] The expression of each of the three membrane proteins (ETB, 49.3 kDa; Hb-EGF, 51 kDa; bacteriorhodopsin, 26.9 kDa) was able to be increased in the dialysis system (comparison of the dialysis batches +CI and −CI) with the addition of the caspase inhibitor by approximately 100% (FIG. 2).

[3] = system: Mel-hEGFR-eYFP in microsomes of the insect cell lysate; test: Multiple (repetitive) synthesis of Mel-hEGFR-eYFP into microsomes of the insect cell lysate; format: biochemical, Spodoptera frugiperda
Method: A suitable method for increasing the concentration of a particular target protein in the lumen or the membrane of the insect cell vesicles lies in carrying out multiple syntheses. This procedure leads to a longer dwell time of the de novo synthesized target proteins in the translation mixture. For successful conversion, it is therefore absolutely necessary to ensure the stability of the target proteins even after relatively long incubation times (>1.5 h) in the translation mixture. For this purpose, the caspase inhibitor Z-VAD-FMK was added to the translation reaction. The multiple synthesis of the target protein was carried out as follows: the microsomes of the translation mixture incubated under standard conditions (27° C., 1.5 h) were pelleted with a centrifugation step at 16,000 g and resuspended in a new translation-active cell lysate without microsomes and incubated again for 1.5 h at 27° C. in the presence of the caspase inhibitor Z-VAD-FMK. In the present experimental example, the synthesis was repeated four times. Following each synthesis step, the yield of radioactively labeled protein in the translation mixture, the supernatant and the vesicular fraction were determined. In addition, 5 μl of the translation mix were precipitated in acetone and subsequently separated out electrophoretically. […] The addition of the caspase inhibitor to the translation reaction enables a synthesis of the target protein over a total of 6 h.

[4] = dialysis system 48 h, +CI vs −CI
[5] = from synthesis steps 1 to 4, in presence of Z-VAD-FMK

COC(=O)C[C@H](NC(=O)[C@H](C)NC(=O)[C@@H](NC(=O)OCc1ccccc1)C(C)C)C(=O)CF [Z-VAD-FMK, benzyloxycarbonyl-Val-Ala-Asp-[O-methyl]-fluoromethylketone] (Cbz-Val-Ala-Asp(OMe)-CH2F)
fluorescence signal of SII-eYFP, fold more intense [1]: 3.7 times
increase of expression of ETB [2, 4]: approximately 100%
increase of expression of Hb-EGF [2, 4]: approximately 100%
increase of expression of bacteriorhodopsin [2, 4]: approximately 100%
increase of maximum achievable yields of membrane protein, average ([2]; dialysis system, addition of caspase inhibitor): approximately 100%
total time over which synthesis of the target protein is enabled ([3]; four repeated syntheses of 1.5 h at 27° C. in presence of caspase inhibitor): 6 h
increase of yield of target protein, total protein in the translation mixture [3, 5]: 110%
increase of yield of target protein, vesicular fraction [3, 5]: 180%
